Test results: patent US11110079B2, “Mebendazole polymorph for treatment and prevention of tumors” (THE JOHNS HOPKINS UNIVERSITY, priority 2015, dated 2021)
Entries after “also recorded” stand apart in the source; their conditions may differ. Where two headings read alike, the source gives them in different places.

What was measured:
[1] = in vivo, po, 50 mg/kg
Experimental: (§1) Female C57BL6 mice, 5-6 weeks of age, were purchased from NCl. Animal experimentation was conducted under an approved IACUC protocol and complied with local and national guidelines. All MBZ polymorphs and tablets were administered by oral gavage at a dose of 50 mg/kg. Elacridar was administered by oral gavage at 50 mg/kg 2 hours prior to the administration of MBZ-C. Mice (3 animals/time point) were first anesthetized via intraperitoneal injection of 60 μl of a stock solution containing ketamine hydrochloride (75 mg/kg) (100 mg/ml; Ketamine HCl; Abbot Laboratories, Chicago, Ill., USA) and xylazine (7.5 mg/kg) (100 mg/ml; Xyla-ject®, Phoenix Pharmaceutical, St. Joseph, Mo., USA) in a sterile 0.9% NaCl solution. Then the blood samples were taken by puncturing and aspiring from the left heart ventricle. Blood samples were mixed with 5 mM EDTA and centrifuged at 10000 g for 5 min to obtain the plasma for further analysis.
(§2) Blood, brain and brain tumor tissues were harvested as a function of time after MBZ administration. To compare the pharmacokinetics of MBZ polymorphs, three cohorts of mice each were administered a single dose of 50 mg/kg by oral gavage. For the initial comparison studies, plasma samples were obtained at 1, 2.5, 4, 6, 8, 15, and 24 hours after MBZ administration while brain tissue was only collected at 6 hours. For the comparison studies of polymorph C with or without ELD, plasma and brain tissue samples were obtained at 2.5, 4, and 8 hours after MBZ administration. Brain tumor tissue samples were also obtained for polymorph C alone.
(§3) MBZ and the two metabolites, 2-amino-5-benzoyl-benzimidazole (MBZ-NH2, CAS 52329-60-9) and rac dihydro mebendazole (MBZ-OH, CAS 60254-95-7), were quantified in plasma, brain and brain tumor tissue. Tissue homogenates were prepared at a concentration of 200 mg/ml in plasma prior to extraction. Mebendazole and metabolites were extracted from 50 μl of plasma or tissue homogenates with 0.1 ml of methanol containing 0.5 μg/ml of the internal standard A620223.69. After centrifugation, the supernatant (60 μl) was mixed with water (40 μl) and then transferred into autosampler vials. […] The analytes were monitored using an AB Sciex triple quadrapole™ 5500 mass-spectrometric detector (Applied Biosystems, Foster City, Calif., USA) using electrospray ionization operating in positive mode. The spectrometer was programmed to allow the [MH+] ions of MBZ, MBZ-NH2, MBZ-OH, and A620223.69 at m/z 296.0, 238.0, 298.0, and 287.2, respectively to pass through the first quadrupole (Q1) and into the collision cell (Q2). The daughter ions for MBZ (m/z 263.9), MBZ-NH2 (m/z 105.1), MBZ-OH (m/z 266.0), and A620223.69 (m/z 124.1) were monitored through the third quadrupole (Q3). Calibration curves for MBZ and metabolites were computed using the area ratio peak of the analysis to the internal standard by using a quadratic equation with a 1/x weighting function over the range of 5 to 500 ng/ml (MBZ) and 1 to 500 ng/ml (metabolites) with dilutions of up to 1:100 (v:v). If one or more concentrations were below limits of quantification, a value of ½ the limit of quantification was assigned for pharmacokinetic calculations. If two consecutive time points were below limits of quantification, the last one was excluded from the analysis.
Mean plasma and brain concentrations were calculated at each time point for both MBZ and its metabolites. 1.045 g/ml was used as the average wet rodent brain tissue density (16). Pharmacokinetic parameters were calculated from mean MBZ and its metabolites concentration-time data using noncompartmental methods as analyzed in Phoenix® WinNonlin® version 6.3 (Pharsight Corp., Mountain View, Calif.). Cmax and Tmax were the observed values from the mean concentration data. The AUClast was calculated using the log-linear trapezoidal method. λz was determined from the slope of the terminal phase of the concentration-time profile. The terminal half-life (T1/2) was determined by dividing 0.693 by λz. […]

[2] = in vivo; conditions: for mean B/P ratio: 6 h
Experimental: as §1
For brain distribution studies, mice were perfused under anesthesia with 20 ml ice-cold saline supplemented with 20 μl of 0.02% heparin by injecting slowly into the left heart ventricle using a 20 gauge needle. The right atrium was cut open before to allow the blood outflow. The yellow color of kidney indicated a good perfusion quality that was essential to deplete blood from the brain tissue. In GL261 tumor-bearing mice, GL261 tumor was distinguished from the normal brain by easily recognizable differences in color and shade. GL261 tumor was separated with a scalpel and the normal brain tissue was cut from the contralateral hemisphere. All brain samples were weighed and stored at −80° C. before processing.
as §2
as §3, with “calculations.” for “calculations. If two consecutive time points were below limits of quantification, the last one was excluded from the analysis.”

[3] = test system: GL261 glioma cells; experiment: Cytotoxicity in cultured GL261 cells (colorimetric assay, 72 h); format: cell-based, mouse; conditions: for cytotoxicity in GL261 cells: in vitro
Experimental: Cells were incubated with the indicated drugs for 72 h and the living cells were measured by the colorimetric assay.
(3,14) GL261 and D425 cells were maintained in DMEM media supplemented with 10% fetal bovine serum and antibiotics at 37° C. in humidified air containing 5% CO2.

[4] = test system: GL261-luc glioma; conditions: for mean survival: GL261 model, MBZ polymorphs 50 mg/kg oral; for survival of GL261 glioma-bearing mice: other benzimidazoles, even at higher doses than MBZ; for difference in survival (Mantel-Cox test): GL261-luc glioma-bearing mice, 100 mg/kg oral gavage from day 5
Experimental: All animal studies were approved by the Animal Care and Use Committee (ACUC) of the Johns Hopkins University. The intracranial implantation of GL261-luc in the frontal lobe and D425 cells in the cerebellum of the mouse brain followed the procedure described before (3,4). […] MBZ and other benzimidazoles were prepared by either mixing the power with PBS and sesame oil (1:1, v:v) (Sigma) or by grinding the tablets to powder and resuspending in the aforementioned PBS/sesame oil mixture. Elacridar was prepared as a 10 mg/ml suspension in 0.5% hydroxypropylmethylcellulose and 0.5% Tween 80 in PBS similarly as described before (15).
Animal survival data were analyzed by GraphPad Prism 5.0. The p-values were determined by a Mantel-Cox test. A p-value under 0.05 was accepted as statistically significant.

[5] = test system: D425 medulloblastoma; experiment: Orthotopic D425 medulloblastoma xenograft model (survival); format: in vivo, mouse; conditions: D425 model, elacridar alone; marginal
Experimental: The intracranial implantation of GL261-luc in the frontal lobe and D425 cells in the cerebellum of the mouse brain followed the procedure described before (3,4). Five days after tumor implantation, mice were gavaged with MBZ or the other benzimidazoles at 50 mg/kg five days a week. MBZ and other benzimidazoles were prepared by either mixing the power with PBS and sesame oil (1:1, v:v) (Sigma) or by grinding the tablets to powder and resuspending in the aforementioned PBS/sesame oil mixture. Elacridar was prepared as a 10 mg/ml suspension in 0.5% hydroxypropylmethylcellulose and 0.5% Tween 80 in PBS similarly as described before (15).

[6] = female, C57BL6, mouse, po, 50 mg/kg

COC(=O)Nc1nc2ccc(C(O)c3ccccc3)cc2[nH]1 (racemic) [MBZ-OH, rac dihydro mebendazole]
plasma AUC0-24 h of metabolite ([1]; mouse): 5,781 h*ng/ml

COC(=O)Nc1nc2ccc(C(=O)c3ccccc3)cc2[nH]1 [MBZ-A, Mebendazole]
plasma AUC0-24 h ([1]; female, C57BL6, mouse): 3,052 h*ng/ml
plasma AUC0-24 h relative to MBZ-C ([1]; female, C57BL6, mouse): 19%
mean B/P ratio [2, 6]: 0.32
cytotoxicity in GL261 cells [3]: equal cytotoxicity

COC(=O)Nc1nc2ccc(C(=O)c3ccccc3)cc2[nH]1 [MBZ-B, Mebendazole]
toxicity in GL261 glioma-bearing mice ([4]; 50 mg/kg oral): presumably died from drug toxicity
treatment-related death among 6 treated mice ([4]; GL261 glioma-bearing mice, 50 mg/kg oral): 1
mean survival [4]: 45 days
plasma AUC0-24 h ([1]; female, C57BL6, mouse): 26,474 h*ng/ml
plasma AUC0-24 h relative to MBZ-C ([1]; female, C57BL6, mouse): 165%
mean B/P ratio [2, 6]: 0.64
cytotoxicity in GL261 cells [3]: equal cytotoxicity

COC(=O)Nc1nc2ccc(C(=O)c3ccccc3)cc2[nH]1 [MBZ-C, Mebendazole]
mean survival [4]: 48.5 days
efficacy in GL261 glioma model ([4]; oral gavage 50 mg/kg, from day 5 after implantation, 50 mg/kg): best efficacy
plasma AUC0-24 h ([1]; female, C57BL6, mouse): 16,039 h*ng/ml
Kp ([2]; female, C57BL6, mouse, AUC0-24h B/P ratio): 0.82
brain Cmax, equivalent concentration ([2]; female, C57BL6, mouse, po): 7.1 µM
peak brain concentration [2, 6]: 2,016 ng/g
Kp at 8 h ([2]; female, C57BL6, mouse, po, 50 mg/kg, brain/plasma (B/P) ratio on average): 0.75
change of brain concentration of MBZ in terms of AUC0-8h ([2]; mouse, po, 50 mg/kg): did not significantly change
time of peak brain concentration after oral administration ([2]; mouse, po, 50 mg/kg): Four
cytotoxicity in GL261 cells [3]: equal cytotoxicity

Nc1nc2ccc(C(=O)c3ccccc3)cc2[nH]1 [MBZ-NH2, 2-amino-5-benzoyl-benzimidazole]
plasma AUC0-24 h of metabolite ([1]; female, C57BL6, mouse): 10,516 h*ng/ml
B/P ratio of MBZ-NH2 ([2]; female, C57BL6, mouse): 0.12
elevation of B/P ratio by co-administration of elacridar ([2]; female, C57BL6, mouse): 2.5 folds
distribution in GL261 brain tumor vs contralateral normal brain tissue [2, 6]: preferentially accumulated in the GL261 brain tumor
elevation of AUC0-8 h by co-administration of elacridar ([2]; mouse): 2.4 folds
brain levels of metabolite in terms of Cmax and AUC0-24 h ([2]; mouse, po, 50 mg/kg): much lower levels than MBZ-OH
distribution in GL261 brain tumor vs contralateral normal brain tissue ([2]; mouse, po, 50 mg/kg): significantly higher levels than in the contralateral brain
cytotoxicity in GL261 cells [3]: only a marginal cytotoxicity; also recorded: least cytotoxic

CCCSc1ccc2nc(NC(=O)OC)[nH]c2c1 [albendazole]
survival of GL261 glioma-bearing mice [4]: failed or only marginally improved the survival

COc1cc2c(cc1OC)CN(CCc1ccc(NC(=O)c3cccc4c(=O)c5cccc(OC)c5[nH]c34)cc1)CC2 [elacridar]
median survival ([4]; GL261, single agent 50 mg/kg, control 29.5 days): 34 days
survival benefit [5]: 9 days
IC50 ([3]; GL261 mouse glioma cells): 5.8 µM

COC(=O)Nc1nc2ccc(Sc3ccccc3)cc2[nH]1 [fenbendazole]
difference in survival (Mantel-Cox test) [4]: not significant
survival of GL261 glioma-bearing mice [4]: failed or only marginally improved the survival

COC(=O)Nc1nc2cc(C(=O)c3ccc(F)cc3)ccc2[nH]1 [flubendazole]
difference in survival (Mantel-Cox test) [4]: not significant
survival of GL261 glioma-bearing mice [4]: failed or only marginally improved the survival

COC(=O)Nc1nc2cc([S+]([O-])c3ccccc3)ccc2[nH]1 (stereo not drawn) [oxifendazole]
difference in survival (Mantel-Cox test) [4]: not significant
survival of GL261 glioma-bearing mice [4]: failed or only marginally improved the survival

c1ccc2[nH]c(-c3cscn3)nc2c1 [thiabendazole, Thiabendazole]
difference in survival (Mantel-Cox test) [4]: not significant
survival of GL261 glioma-bearing mice [4]: failed or only marginally improved the survival
